Entries after “also recorded” stand apart in the source; their conditions may differ. Where two headings read alike, the source gives them in different places. Where only a bound is given, the exact number is not on record here.

Test [1] addresses T1, recombinant human TRPM8 stably expressed in HEK293 cells (hTRPM8) (Homo sapiens, UniProt Q7Z2W7).
T1 construct: expressed in transfected cells
Nature of the test: Ca2+ microfluorimetry screen for agonist/antagonist activity in hTRPM8-HEK293 cells. The class given is cell-based. Particulars: agonists vs WS-12, antagonists vs WS-12 response, read-out: Efficacy (percentage of maximal activation or blockade).

Test [2] addresses T1, recombinant human TRPM8 stably expressed in HEK293 cells (hTRPM8). The description is as above. The class given is cell-based. Particulars: for Activity (agonist/antagonist): agonism = compound-induced Ca2+ influx, antagonism = modulation of WS-12-induced Ca2+ influx; for EC50: half of channel activation; for Hill coefficient: hTRPM8-HEK293 Ca2+ microfluorimetry dose-response. An excerpt: We first evaluated the series of compounds 20–29 synthesized using the Passerini‐Adamantane reaction. All compounds were screened for channel agonism and antagonism on recombinant human TRPM8 stably expressed in HEK293 cells (hTRPM8‐HEK293) with Ca^2+ microfluorimetry. […] Compound‐induced TRPM8‐mediated Ca^2+ influx was confirmed using untransfected HEK293 cells and the channel blocker AMTB. […] The concentration of compounds to reach half of channel activation (EC50) or to block half‐channel activity evoked by WS‐12 (IC50) are reported in Table 1, along with the percentage of maximal activation or blockade (Efficacy).
Assays were conducted to assess the channel activity of the recombinant hTRPM8 stably expressed in HEK‐293 cells. HEK‐293‐hTRPM8 cells were cultured in a monolayer using a DMEM GlutaMax with 10% FBS and 1% P/S and maintained at 37 °C in 5% CO2. For experiments, cells were prepared and seeded at the indicated densities. To evaluate compound effectiveness against hTRPM8 activity, microfluorometry‐based calcium flux assays were performed using Fluo‐4 NW Ca^2+ dye and fluorescence detection. HEK cell lines expressing hTRPM8 were seeded in 96‐well plates and incubated with the dye‐loading solution. Ion channel activity was measured using a plate reader, and fluorescence intensity changes were recorded following the addition of vehicle, compound at varying concentrations, and antagonist (10 μM AMTB). Data analysis included calculating the Z‐factor for each assay and normalizing compound effects to […]. Data were analyzed to determine the concentration exerting half‐maximal inhibition (IC50) or activation (EC50) of agonist‐induced calcium elevation, using GRAPHPAD PRISM8® software (Boston, MA, USA). All experiments were conducted in triplicate, and results are presented as mean ± standard deviation.

Setting [3] is: hTRPM8-HEK293, mean ± SD, N = 3.
Setting [4] is: hTRPM8-HEK293, block of half channel activity evoked by WS-12, mean ± SD, N = 3, read-out: IC50.

T1 sequence (Q7Z2W7 whole entry): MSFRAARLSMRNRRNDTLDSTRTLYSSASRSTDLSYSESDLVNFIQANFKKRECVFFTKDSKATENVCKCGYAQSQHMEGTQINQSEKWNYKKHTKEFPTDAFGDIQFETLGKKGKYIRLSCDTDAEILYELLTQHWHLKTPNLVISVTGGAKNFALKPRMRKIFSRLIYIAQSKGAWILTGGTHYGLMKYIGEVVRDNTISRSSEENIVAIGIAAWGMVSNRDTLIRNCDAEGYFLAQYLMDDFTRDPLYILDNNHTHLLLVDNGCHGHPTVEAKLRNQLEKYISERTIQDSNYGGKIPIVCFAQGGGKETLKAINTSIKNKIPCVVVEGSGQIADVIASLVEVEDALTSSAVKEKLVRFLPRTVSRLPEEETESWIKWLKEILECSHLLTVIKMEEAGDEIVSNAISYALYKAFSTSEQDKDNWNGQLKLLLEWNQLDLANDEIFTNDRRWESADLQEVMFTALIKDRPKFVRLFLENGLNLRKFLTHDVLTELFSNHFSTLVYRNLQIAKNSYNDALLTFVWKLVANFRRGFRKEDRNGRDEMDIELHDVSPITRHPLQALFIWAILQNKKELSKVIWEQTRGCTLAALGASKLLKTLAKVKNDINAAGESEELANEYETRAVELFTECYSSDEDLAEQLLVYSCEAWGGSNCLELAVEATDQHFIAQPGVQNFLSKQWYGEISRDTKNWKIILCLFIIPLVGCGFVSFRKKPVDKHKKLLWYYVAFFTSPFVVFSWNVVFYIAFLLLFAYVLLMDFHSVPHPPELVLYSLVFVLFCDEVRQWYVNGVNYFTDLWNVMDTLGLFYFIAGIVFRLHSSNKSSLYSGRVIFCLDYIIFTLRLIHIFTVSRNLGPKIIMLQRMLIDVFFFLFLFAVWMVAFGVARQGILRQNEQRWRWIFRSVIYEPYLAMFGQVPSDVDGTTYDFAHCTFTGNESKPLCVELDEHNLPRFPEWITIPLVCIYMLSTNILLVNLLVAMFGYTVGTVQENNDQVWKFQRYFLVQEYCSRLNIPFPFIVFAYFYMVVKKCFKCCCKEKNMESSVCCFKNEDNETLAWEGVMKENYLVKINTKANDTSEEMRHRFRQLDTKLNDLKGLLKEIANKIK

For the compound `O=C(CN1CCN(C(=O)Cc2ccccc2)CC1)NC12CC3CC(CC(C3)C1)C2` [Compound 44, N‐((3S,5S,7S)‐adamantan‐1‐yl)‐2‐(4‐(2‐phenylacetyl)piperazin‐1‐yl)acetamide], the Emax in test [1] amounted to 69%. Also, the “Activity (agonist/antagonist)” value in test [2] (hTRPM8-HEK293) is “Agonist”. Moreover, the EC50 (usually the concentration that produces a half-maximal response) in test [2] (setting [3]) was 9600 ± 1500 nM. In test [2] (mean ± SD), the Hill coefficient (usually a measure of the steepness of the concentration-response curve) was 0.7 ± 4.0.
The matching figures for `CC(=O)NCCCC(=O)OCC(=O)NC12CC3CC(CC(C3)C1)C2` [Compound 27, 2‐((3S,5S,7S)‐adamantan‐1‐ylamino)‐2‐oxoethyl 4‐acetamidobutanoate]: 60%, “agonistic activity; also recorded: Agonist”, 600 ± 1200 nM and 0.3 ± 1.6.
The matching figures for `CC(=O)N(CC(=O)NC12CC3CC(CC(C3)C1)C2)C1CCCCC1` [Compound 37, N‐((3S,5S,7S)‐adamantan‐1‐yl)‐2‐(N‐cyclohexylacetamido)acetamide]: 48%, “Agonist”, 200 nM and 0.9 ± 9.2.
The matching figures for `CC(=O)N(CC(=O)NC12CC3CC(CC(C3)C1)C2)C1CC1` [Compound 34, N‐((3S,5S,7S)‐adamantan‐1‐yl)‐2‐(N‐cyclopropylacetamido)acetamide]: 54%, “Agonist”, 200 nM and 0.3 ± 14.
As to `CCCC(=O)OCC(=O)NC12CC3CC(CC(C3)C1)C2` [Compound 24, 2‐((3S,5S,7S)‐adamantan‐1‐ylamino)‐2‐oxoethyl butyrate], the Emax in test [1] stood at 19%. Besides, the “Activity (agonist/antagonist)” value in test [2] (hTRPM8-HEK293) is reported as “agonistic activity; also recorded: Agonist”. Also, in test [2] (setting [3]), the EC50 stood at 19000 ± 2000 nM. Also, in test [2] (mean ± SD), the Hill coefficient is reported as 0.6 ± 0.2.
Consider `O=C(COC(=O)c1ccccc1)NC12CC3CC(CC(C3)C1)C2` [Compound 20, 2‐((3S,5S,7S)‐adamantan‐1‐ylamino)‐2‐oxoethyl benzoate], for which the Emax in test [1] is 60%. Besides, the “Activity (agonist/antagonist)” value in test [2] (hTRPM8-HEK293) is “Antagonist”. Further, in test [2] (setting [4]), the IC50 (as a rule, the point on the concentration scale where inhibition reaches its midpoint) was found to be 1800 ± 1100 nM. Moreover, in test [2] (mean ± SD), the Hill coefficient was 0.4 ± 1.2.
On to `CCCCN(CC(=O)NC12CC3CC(CC(C3)C1)C2)C(C)=O` [Compound 39, N‐((3S,5S,7S)‐adamantan‐1‐yl)‐2‐(N‐butylacetamido)acetamide], for which the Emax in test [1] was 64%. Besides, the “Activity (agonist/antagonist)” value in test [2] (hTRPM8-HEK293) is reported as “Agonist”. Further, the EC50 in test [2] (setting [3]) was 500 ± 1400 nM. In test [2] (mean ± SD), the Hill coefficient was 0.4 ± 9.1.
The matching figures for `CC(=O)N(CC(=O)NC12CC3CC(CC(C3)C1)C2)Cc1ccccc1` [Compound 40, N‐((3S,5S,7S)‐adamantan‐1‐yl)‐2‐(N‐benzylacetamido)acetamide]: 86%, “Agonist”, 1400 ± 1400 nM and 0.7 ± 2.4.
Regarding `O=C(CN1CCN(C(=O)c2ccccc2)CC1)NC12CC3CC(CC(C3)C1)C2` [Compound 42, N‐((3S,5S,7S)‐adamantan‐1‐yl)‐2‐(4‐benzoylpiperazin‐1‐yl)acetamide], the Emax in test [1] worked out at 73%. Also, in test [2] (hTRPM8-HEK293), the “Activity (agonist/antagonist)” value is “Agonist”. In addition, the half-maximal effective concentration (EC50) in test [2] (setting [3]) was 5400 ± 1500 nM. For the same compound, the Hill coefficient in test [2] (mean ± SD) worked out at 0.4 ± 4.3.
Consider `CC(=O)N(CC(=O)NC12CC3CC(CC(C3)C1)C2)C12CC3CC(CC(C3)C1)C2` [Compound 38, N‐((3S,5S,7S)‐adamantan‐1‐yl)‐2‐(N‐((3S,5S,7S)‐adamantan‐1‐yl)acetamido)acetamide], for which the Emax in test [1] was found to be 65%. The “Activity (agonist/antagonist)” value in test [2] (hTRPM8-HEK293) is listed as “Agonist”. Also, the EC50 in test [2] (setting [3]) was determined as 2000 ± 1400 nM. In test [2] (mean ± SD), the Hill coefficient turned out to be 0.3 ± 3.6.
The matching figures for `CC(=O)OCC(=O)NC12CC3CC(CC(C3)C1)C2` [Compound 22, 2‐((3S,5S,7S)‐adamantan‐1‐ylamino)‐2‐oxoethyl acetate]: 64%, “agonistic activity; also recorded: Agonist”, 1100 ± 1500 nM and 0.4 ± 1.3.
Turning to `O=C(COC(=O)C1CCCC1)NC12CC3CC(CC(C3)C1)C2` [Compound 25, 2‐((3S,5S,7S)‐adamantan‐1‐ylamino)‐2‐oxoethyl cyclopentane carboxylate], the Emax in test [1] was determined as 57%. In addition, the “Activity (agonist/antagonist)” value in test [2] (hTRPM8-HEK293) is on record as “Antagonist”. Further, the IC50 in test [2] (setting [4]) worked out at 45000 ± 2000 nM. Moreover, the Hill coefficient in test [2] (mean ± SD) is reported as 0.8 ± 3.0.
Consider `O=C(CN(C(=O)C1CCCC1)C1CC1)NC12CC3CC(CC(C3)C1)C2` [Compound 32, N‐(2‐(((3S,5S,7S)‐adamantan‐1‐yl)amino)‐2‐oxoethyl)‐N‐cyclopropylcyclopentanecarboxamide], for which, in test [1], the Emax came to 56%. The “Activity (agonist/antagonist)” value in test [2] (hTRPM8-HEK293) is “potent hTRPM8 agonist”. Further, the EC50 in test [2] (setting [3]) stood at 400 nM. For the same compound, the Hill coefficient in test [2] (mean ± SD) is on record as 0.2 ± 1.5.
Consider `O=C(CN1CCN(C(=O)C2CCCC2)CC1)NC12CC3CC(CC(C3)C1)C2` [Compound 43, N‐((3S,5S,7S)‐adamantan‐1‐yl)‐2‐(4‐(cyclopentanecarbonyl)piperazin‐1‐yl)acetamide], for which, in test [1], the Emax is 82%. Moreover, the “fold lower agonist potency compared with α‐aminoacyl amide 32” value in test [2] (hTRPM8-HEK293, EC50 comparison) is on record as more than 10 fold. The “Activity (agonist/antagonist)” value in test [2] (hTRPM8-HEK293) is “TRPM8 agonist”. In addition, the concentration giving a half-maximal response (EC50) in test [2] (setting [3]) was found to be 9300 ± 1500 nM. In test [2] (mean ± SD), the Hill coefficient was 0.6 ± 1.8.
Regarding `O=C(COC(=O)c1cccc([N+](=O)[O-])c1)NC12CC3CC(CC(C3)C1)C2` [Compound 29, 2‐((3S,5S,7S)‐adamantan‐1‐ylamino)‐2‐oxoethyl 3‐nitrobenzoate], the Emax in test [1] amounted to 69%. The “Activity (agonist/antagonist)” value in test [2] (hTRPM8-HEK293) was “Antagonist”. Moreover, the IC50 in test [2] (setting [4]) amounted to 2300 ± 1100 nM. In test [2] (mean ± SD), the Hill coefficient is recorded as 0.5 ± 3.0.
Turning to `O=C(COC(=O)c1ccc(Cl)cc1)NC12CC3CC(CC(C3)C1)C2` [Compound 28, 2‐((3S,5S,7S)‐adamantan‐1‐ylamino)‐2‐oxoethyl 4‐chlorobenzoate], the Emax in test [1] turned out to be 87%. In addition, the “Activity (agonist/antagonist)” value in test [2] (hTRPM8-HEK293) is on record as “agonist activity”. Moreover, the EC50 in test [2] (setting [3]) was found to be 1200 ± 1200 nM. Besides, the Hill coefficient in test [2] (mean ± SD) is 0.1 ± 0.2.
`O=C(CN(C(=O)c1ccccc1)C1CC1)NC12CC3CC(CC(C3)C1)C2` [Compound 30, N‐(2‐(((3S,5S,7S)‐adamantan‐1‐yl)amino)‐2‐oxoethyl)‐N‐cyclopropylbenzamide]: the Emax in test [1] amounted to 92%. Moreover, in test [2] (hTRPM8-HEK293), the “Activity (agonist/antagonist)” value is “Agonist”. Besides, the EC50 in test [2] (setting [3]) is 1500 ± 1500 nM. Besides, the Hill coefficient in test [2] (mean ± SD) is recorded as 0.7 ± 1.6.
Consider `O=C(CN(C(=O)c1ccccc1-c1ccccc1)C1CC1)NC12CC3CC(CC(C3)C1)C2` [Compound 33, N‐(2‐(((3S,5S,7S)‐adamantan‐1‐yl)amino)‐2‐oxoethyl)‐N‐cyclopropyl‐[1,1′‐biphenyl]‐2‐carboxamide], for which the Emax in test [1] is 48%. Besides, the “Activity (agonist/antagonist)” value in test [2] (hTRPM8-HEK293) was “moderate antagonistic activity; also recorded: Antagonist”. The IC50 in test [2] (setting [4]) is 1100 ± 1200 nM. Besides, the Hill coefficient in test [2] (mean ± SD) came to 2.0 ± 7.8.
Turning to `CCCC(=O)N(CC(=O)NC12CC3CC(CC(C3)C1)C2)C1CC1` [Compound 31, N‐(2‐(((3S,5S,7S)‐adamantan‐1‐yl)amino)‐2‐oxoethyl)‐N‐cyclopropylbutyramide], the Emax in test [1] was found to be 72%. Also, in test [2] (hTRPM8-HEK293), the “Activity (agonist/antagonist)” value is listed as “Agonist”. Moreover, the half-maximal effective concentration (EC50) in test [2] (setting [3]) stood at 300 nM. Moreover, in test [2] (mean ± SD), the Hill coefficient is recorded as 0.7 ± 2.5.
The matching figures for `O=C(COC(=O)c1cccnc1)NC12CC3CC(CC(C3)C1)C2` [Compound 26, 2‐((3S,5S,7S)‐adamantan‐1‐ylamino)‐2‐oxoethyl nicotinate]: 72%, “agonist activity”, 1900 ± 1600 nM and 0.4 ± 6.4.
On to `O=C(CN(C(=O)c1cc2ccccc2s1)C1CC1)NC12CC3CC(CC(C3)C1)C2` [Compound 35, N‐(2‐(((3S,5S,7S)‐adamantan‐1‐yl)amino)‐2‐oxoethyl)‐N‐cyclopropylbenzo[b]thiophene‐2‐carboxamide], for which the Emax in test [1] is 40%. The “Activity (agonist/antagonist)” value in test [2] (hTRPM8-HEK293) is “moderate antagonistic activity; also recorded: Antagonist”. The concentration for half-maximal inhibition (IC50) in test [2] (setting [4]) stood at 600 ± 1200 nM. Besides, in test [2] (mean ± SD), the Hill coefficient is reported as 2.0 ± 4.3.
Take `O=C(COC(=O)Cc1ccccc1)NC12CC3CC(CC(C3)C1)C2` [Compound 21, 2‐((3S,5S,7S)‐adamantan‐1‐ylamino)‐2‐oxoethyl 2‐phenylacetate]: the Emax in test [1] worked out at 44%. For the same compound, in test [2], the half-inhibitory concentration (IC50) is 1500 ± 1100 nM. For the same compound, the “Activity (agonist/antagonist)” value in test [2] (hTRPM8-HEK293) is given as “Antagonist”. In addition, in test [2] (mean ± SD), the Hill coefficient stood at 0.5 ± 2.3.
